Values of other authors in patent US20150133409A1, “TOPICAL OPHTHALMIC, OTIC, AND NASAL COMPOSITIONS OF CIPROFLOXACIN” (priority 2013, published 2015).
Read-outs that look alike come from different tables or passages of the source.

Details: aqueous 0.2 to 1 weight percent ciprofloxacin

O=C(O)c1cn(C2CC2)c2cc(N3CCNCC3)c(F)cc2c1=O [ciprofloxacin]
pH at which crystalline precipitation of ciprofloxacin occurs (5° C.): above 5
pH at which crystalline precipitation of ciprofloxacin occurs (room temperature): above 5.5
